The values that follow come from patent US9944613B2, “Fumagillol spirocyclic compounds and fused bicyclic compounds and methods of making and using same” (Zafgen, Inc., priority 2015, dated 2018).

Structures are written as SMILES. Where a name gives a salt, the structure may show the parent alone. Read-outs that look alike come from different tables or passages of the source.

For test [1], the system named is Diet Induced Obese (DIO) C57BL/6 mice. Briefly: 10 day DIO mouse model, weight loss vs. vehicle. Type of test: in vivo. The settings on record: 240 h, 0.3 mpk sc once a day for 10 days. An excerpt:
The objective of this study design was to investigate the efficacy of disclosed compounds in a 10 day DIO mouse model. Effects on body weight, food intake, hematology and blood chemistry were the primary readouts of this study design. Male, Diet Induced Obese (DIO) C57BL/6 mice, 19-21 weeks of age (13-15 weeks on high fat diet) were ordered from a certified vendor and upon receipt were housed on irradiated corncob bedding in micro-isolator cages on a 12-hour light-dark cycle (0700-1900) at 68-74° F. and 30-70% humidity. Mice were fed Research Diets D12492 (60% Kcal fat, 20% Kcal carbohydrate and 20% protein) and provided water ad libitum. DIO mice were received and housed in the facility for approximately two weeks prior to the start of test article administration. On Day −4 or −3, mice were randomized into study groups based on body weight and body weights were continued to be recorded daily for the duration of the study. Daily food intake was assessed starting on Study Day −2 by weighing of the food with hopper together to avoid loss of food in transfer.
(§1) Compounds were formulated into a 100% DMSO stock (at 9 mg/mL) prior to the start, and further diluted into the target working concentration using the vehicle of 10% DMSO in water. Prior to test article administration, starting on Day −3 a dosing acclimation occured with all animals receiving a subcutaneous injection of vehicle (10% DMSO) only for 3 days. Starting on Day 1, test compounds or vehicle were administered based on individual body weight, subcutaneously, once a day for 10 days. All mice were sacrificed on Day 11, 24 hours following the final dosing on Day 10. After sacrifice, whole blood was collected and analyzed for hematology and blood chemistry parameters.
(§2) Compounds were tested for weight loss vs. vehicle at 0.3 and 1.0 mpk sc (mg per kg animal weight delivered subcutaneously), and the results are shown in Table 2 below.

Test [2] deals with rat DIO model (Sprague Dawley rats on high fat diet). As to the kind of experiment: 11 day rat DIO model, weight loss vs. vehicle. Type of test: in vivo. The settings on record: for inhibition in vivo at 0.3 mg/kg: Rattus norvegicus, 264 h, 0.3 mpk sc once a day for 11 days.
Source text: The objective of this study design is to investigate the efficacy of disclosed compounds in an 11 day rat DIO model used to screen compounds for pharmacologic efficacy on endpoints related to obesity and metabolism. Effects on body weight, food intake, hematology and blood chemistries were the primary readouts of this study design. Male Sprague Dawley rats, approximately 8 weeks of age, were ordered from a certified vendor and housed on irradiated corncob bedding in micro-isolator cages, on a 12-hour light-dark cycle (0700-1900) at 68-74° F. and 30-70% humidity. Rats were fed Research Diets D12451 (45% High Fat) and provided water ad libitum. Rats were received and housed in the facility for at least two or three weeks prior to start of test article administration. On Day −4 or −3, rats were randomized into study groups based on body weight and body weights were continued to be recorded daily for the duration of the study. Daily food intake was assessed starting on Study Day −2 by weighing the hopper including the food to avoid loss of food in transfer.
as §1, with “for 11” for “for 10”, “All animals” for “All mice”, “11, approximately 2” for “11, 24”, “Day 11.” for “Day 10.”
as §2

For test [3], the target named is T1, recombinant human MetAP2 (Homo sapiens, UniProt P50579).
T1 construct: Flag; made in house
As to the kind of experiment: Inhibition of recombinant human MetAP2 activity (MAS peptide / amino acid oxidase / Amplex assay). Type of test: biochemical. How it is done: Compounds are tested for their capacity to inhibit recombinant human MetAP2 activity using the following assay.
Flag tagged Human recombinant MetAP2 expressed and isolated for use as the enzyme source. 10 mM stock solutions of compounds were prepared in 100% DMSO and further diluted in 100% DMSO required concentration to 1 mM stocks. The stock compound solutions and DMSO vehicle controls were diluted to target final compound concentrations using assay buffer to a final concentration of 50 mM HEPES containing 100 mM NaCl, pH adjusted to 7.5. The MAS peptide was formulated to a 7.5 mM stock in distilled water and prior to use further diluted 1:4. […] 40 μl of enzyme was mixed with 100 μl of MnCl2 then further diluted in assay buffer to a final concentration of 16 μg/ml. To test for compound effect on MetAP2 enzyme activity, 5 μl of test compound, 10 μl of MAS substrate/amino acid oxidase mixture, 10 μl of MetAP2 was added to test wells in a 384 well black plate with blank wells containing no enzyme, replaced with 10 μl of assay buffer. All compounds were tested in duplicate on two occasions on the same day.
The plate was sealed with a TopSeal A cover and mixed briefly on an orbital mixer at 900 rpm. The plate was incubated for a further 25 minutes at 25° C. A 5× stock of Amplex buffer was prepared (0.25M sodium phosphate, pH 7.4) and stored at 4° C. When preparing for use the stock was diluted with distilled water. […] Horse radish peroxidase was diluted in […] of Amplex buffer, 100 μl of this was combined with 50 μl of Amplex Ultrared in […] of 1× Amplex buffer to generate sufficient detection reagent for a 384 well plate. 25 μl detection reagent was added to each well of the test plate, which was re-sealed and mixed briefly on an orbital shaker. The plate was transferred to an Envision Multi-label reader and RFU measured corresponding to excitation 531 nm and emission 595 nm. At the end of the MetAP2 incubation 25 μl Amplex/HRP mixture per well was added and the plate read plate on a plate reader.

[4] abbreviates: Flag tagged human recombinant MetAP2, 25 minutes at 25° C., read-out: MetAP2 IC50.

T1 sequence (P50579 whole entry): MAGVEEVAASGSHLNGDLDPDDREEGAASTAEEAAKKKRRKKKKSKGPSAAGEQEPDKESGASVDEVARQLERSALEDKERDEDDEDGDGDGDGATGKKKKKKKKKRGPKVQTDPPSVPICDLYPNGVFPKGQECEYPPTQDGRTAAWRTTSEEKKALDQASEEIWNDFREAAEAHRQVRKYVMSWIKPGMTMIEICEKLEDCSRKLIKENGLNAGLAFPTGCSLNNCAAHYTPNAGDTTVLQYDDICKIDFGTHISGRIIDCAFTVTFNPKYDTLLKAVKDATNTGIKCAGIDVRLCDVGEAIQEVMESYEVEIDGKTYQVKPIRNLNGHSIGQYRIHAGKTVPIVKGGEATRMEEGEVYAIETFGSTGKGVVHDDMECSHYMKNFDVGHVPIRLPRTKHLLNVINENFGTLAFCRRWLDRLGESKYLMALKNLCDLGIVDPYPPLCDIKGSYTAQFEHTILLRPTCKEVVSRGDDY

Consider `CO[C@@H]1[C@H](OC(=O)N2CCC3(CCN(CC(F)F)CC3)CC2)CC[C@]2(CO2)[C@H]1[C@@]1(C)O[C@@H]1CC=C(C)C` [Example 14, (3R,4S,5S,6R)-5-methoxy-4-((2R,3R)-2-methyl-3-(3-methylbut-2-enyl)oxiran-2-yl)-1-oxaspiro[2.5]octan-6-yl 9-(2,2-difluoroethyl)-3,9-diazaspiro[5.5]undecane-3-carboxylate], for which the results for the inhibition in vivo at 0.3 mg/kg in test [1] and in test [2] were 23.3% and 11.6%, respectively.
Regarding `CO[C@@H]1[C@H](OC(=O)NC2CC3(C2)CN(C)C3)CC[C@]2(CO2)[C@H]1[C@@]1(C)O[C@@H]1CC=C(C)C` [Example 10, (3R,4S,5S,6R)-5-methoxy-4-((2R,3R)-2-methyl-3-(3-methylbut-2-enyl)oxiran-2-yl)-1-oxaspiro[2.5]octan-6-yl 2-methyl-2-azaspiro[3.3]heptan-6-ylcarbamate formate], the IC50 – broadly, the concentration that inhibits the measured activity by half – in test [3] (setting [4]) was under 50 nM. Moreover, the inhibition in vivo (in general, the share of the control response that was lost under treatment) at 0.3 mg/kg stood at 8.4% in test [1] and 2% in test [2]. For the same compound, in test [2] (1.0 mpk sc once a day for 11 days), the “Rat @ 1.0 mpk sc (%)” value is 7.2%.
For the compound `CO[C@@H]1[C@H](OC(=O)N2CC3(CCOCC3)C2)CC[C@]2(CO2)[C@H]1[C@@]1(C)O[C@@H]1CC=C(C)C` [Example 3, (3R,4S,5S,6R)-5-methoxy-4-((2R,3R)-2-methyl-3-(3-methylbut-2-enyl)oxiran-2-yl)-1-oxaspiro[2.5]octan-6-yl 7-oxa-2-azaspiro[3.5]nonane-2-carboxylate], the IC50 in test [3] (setting [4]) was under 50 nM. Besides, the inhibition in vivo at 0.3 mg/kg in test [1] was found to be 18.9%; in test [2], 7.9%.
For `CO[C@@H]1[C@H](OC(=O)N2CCC3(CCOC3)CC2)CC[C@]2(CO2)[C@H]1[C@@]1(C)O[C@@H]1CC=C(C)C` [Example 24, (3R,4S,5S,6R)-5-methoxy-4-((2R,3R)-2-methyl-3-(3-methylbut-2-enyl)oxiran-2-yl)-1-oxaspiro[2.5]octan-6-yl 2-oxa-8-azaspiro[4.5]decane-8-carboxylate] the same measures were 50 to 500 nM, 20.5% and 6.3%.
For the compound `CO[C@@H]1[C@H](OC(=O)N2C[C@H]3CN(CC(F)F)C[C@H]3C2)CC[C@]2(CO2)[C@H]1[C@@]1(C)O[C@@H]1CC=C(C)C` [Example 19, (3aR,6aS)-((3R,4S,5S,6R)-5-methoxy-4-((2R,3R)-2-methyl-3-(3-methylbut-2-enyl)oxiran-2-yl)-1-oxaspiro[2.5]octan-6-yl) 5-(2,2-difluoroethyl)hexahydropyrrolo[3,4-c]pyrrole-2(1H)-carboxylate], in test [3] (setting [4]), the IC50 is 50 to 500 nM. Besides, the inhibition in vivo at 0.3 mg/kg in test [1] is 22.6%; in test [2], 7.6%.
For the compound `CO[C@@H]1[C@H](OC(=O)N2C[C@H]3COC[C@H]3C2)CC[C@]2(CO2)[C@H]1[C@@]1(C)O[C@@H]1CC=C(C)C` [Example 13, (3aR,6aS)-((3R,4S,5S,6R)-5-methoxy-4-((2R,3R)-2-methyl-3-(3-methylbut-2-enyl)oxiran-2-yl)-1-oxaspiro[2.5]octan-6-yl) tetrahydro-1H-furo[3,4-c]pyrrole-5(3H)-carboxylate], the inhibition in vivo at 0.3 mg/kg in test [1] was 16.9%; in test [2] it was 3.1%.
Turning to `CO[C@@H]1[C@H](OC(=O)N2CCC3(CC2)COC3)CC[C@]2(CO2)[C@H]1[C@@]1(C)O[C@@H]1CC=C(C)C` [Example 5, (3R,4S,5S,6R)-5-methoxy-4-((2R,3R)-2-methyl-3-(3-methylbut-2-enyl)oxiran-2-yl)-1-oxaspiro[2.5]octan-6-yl 2-oxa-7-azaspiro[3.5]nonane-7-carboxylate], in test [3], the IC50 was under 50 nM. Also, the values for the inhibition in vivo at 0.3 mg/kg in test [1] and in test [2] were 16.7% and 6.6%, respectively.
As for `CO[C@@H]1[C@H](OC(=O)NC2CC3(CCN(C)C3)C2)CC[C@]2(CO2)[C@H]1[C@@]1(C)O[C@@H]1CC=C(C)C` (stereo partly drawn) [Example 11, (3R,4S,5S,6R)-5-methoxy-4-((2R,3R)-2-methyl-3-(3-methylbut-2-enyl)oxiran-2-yl)-1-oxaspiro[2.5]octan-6-yl 6-methyl-6-azaspiro[3.4]octan-2-ylcarbamate formate], the IC50 in test [3] was under 50 nM. Further, the inhibition in vivo at 0.3 mg/kg in test [1] is 6%.
Consider `CO[C@@H]1[C@H](OC(=O)N2CC3(CNC(=O)C3)C2)CC[C@]2(CO2)[C@H]1[C@@]1(C)O[C@@H]1CC=C(C)C` [Example 25, (3R,4S,5S,6R)-5-methoxy-4-((2R,3R)-2-methyl-3-(3-methylbut-2-enyl)oxiran-2-yl)-1-oxaspiro[2.5]octan-6-yl 7-oxo-2,6-diazaspiro[3.4]octane-2-carboxylate], for which, in test [3], the IC50 is under 50 nM. For the same compound, testing at 0.3 mg/kg in test [1] gave an inhibition in vivo of 2%.
Turning to `CO[C@@H]1[C@H](OC(=O)N2CC3(CCN(C)CC3)C2)CC[C@]2(CO2)[C@H]1[C@@]1(C)O[C@@H]1CC=C(C)C` [Example 8, (3R,4S,5S,6R)-5-methoxy-4-((2R,3R)-2-methyl-3-(3-methylbut-2-enyl)oxiran-2-yl)-1-oxaspiro[2.5]octan-6-yl 7-methyl-2,7-diazaspiro[3.5]nonane-2-carboxylate formate], the IC50 in test [3] (setting [4]) is under 50 nM. The same compound yielded an inhibition in vivo at 0.3 mg/kg in test [1] of 6.2%.
As to `CO[C@@H]1[C@H](OC(=O)N2C[C@H]3CN(C)C[C@H]3C2)CC[C@]2(CO2)[C@H]1[C@@]1(C)O[C@@H]1CC=C(C)C` [Example 20, (3aR,6aS)-((3R,4S,5S,6R)-5-methoxy-4-((2R,3R)-2-methyl-3-(3-methylbut-2-enyl)oxiran-2-yl)-1-oxaspiro[2.5]octan-6-yl) 5-methylhexahydropyrrolo[3,4-c]pyrrole-2(1H)-carboxylate formate], the IC50 in test [3] (setting [4]) was under 50 nM. The compound also gave an inhibition in vivo at 0.3 mg/kg in test [1] of 1.4%.
On to `CO[C@@H]1[C@H](OC(=O)N2CC3(C2)CS(=O)(=O)C3)CC[C@]2(CO2)[C@H]1[C@@]1(C)O[C@@H]1CC=C(C)C` [Example 23, (3R,4S,5S,6R)-5-methoxy-4-((2R,3R)-2-methyl-3-(3-methylbut-2-enyl)oxiran-2-yl)-1-oxaspiro[2.5]octan-6-yl 2-thia-6-azaspiro[3.3]heptane 2,2-dioxide-6-carboxylate], for which the IC50 in test [3] lay in the range of 50 to 500 nM. In test [1], this compound registered an inhibition in vivo at 0.3 mg/kg of 2%.
